According to paper PMC9120017, “Inhibition mechanism of the chloride channel TMEM16A by the pore blocker 1PBC” (Nature Communications, 2022):
Converted amounts (≈) assume the structure as drawn.

Assay: Solubility of 1PBC in aqueous solution
Type: physicochemical

Compound: N#Cc1c(C(F)(F)F)cc(O)n2c1nc1ccccc12 [1PBC]
- solubility: ~100 µM (≈ 27.7 µg/mL)
